Data: article PMC9106635, “Stimulation of the atypical chemokine receptor 3 (ACKR3) by a small-molecule agonist attenuates fibrosis in a preclinical liver but not lung injury model” (Cellular and Molecular Life Sciences: CMLS, 2022)
Read-outs that look alike come from different tables or passages of the source.

Legend:
hCXCR4 = hCXCR4 (Homo sapiens, UniProt P61073); test: CXCL12^AF647 competition binding, Jurkat cells
Experimental: Binding affinity to human (h)CXCR4 and human (h)ACKR3 was investigated with a competition binding assay using CXCL12^AF647 (Almac, UK) as the tracer molecule. Jurkat cells (human T lymphocytic cell line, hCXCR4 positive) or U87.CD4.ACKR3 cells (human glioblastoma cell line, hACKR3 positive) were resuspended in assay buffer [Hank’s Balanced Salt Solution (HBSS, Thermo Fisher Scientific), 20 mM HEPES buffer, 0.2% bovine serum albumin (Sigma-Aldrich), pH 7.4] at 3 × 10^5 cells per sample and treated with increasing concentrations of compound at RT for 15 min. A fixed amount of CXCL12^AF647 (2.9 nM and 1.45 nM in case of hCXCR4 and hACKR3, respectively) was added and cells were incubated at RT for 30 min protected from light. Cells were finally fixed in 1% paraformaldehyde in DPBS and the CXCL12^AF647 binding signal [i.e., mean fluorescence intensity (MFI)] was quantified by flow cytometry (FACSCanto™; Becton Dickinson). Data were analyzed with FlowJo® Software. For all samples the background MFI (i.e., autofluorescence of untreated and unlabeled cells) was subtracted. The percentage inhibition for each compound concentration was calculated relative to the positive control (i.e., untreated cells exposed to CXCL12^AF647 only). Four parameter non-linear curve fitting (GraphPad Prism 9.0.2) was used to determine the IC50 value for binding inhibition.

hACKR3 = hACKR3 (Homo sapiens, UniProt P25106); test: β-arrestin2 recruitment assay (PathHunter CHO-K1 CXCR7 β-arrestin cell line); assay type: cell-based; set-up: host or cells: CHO-K1 (PathHunter CXCR7 β-arrestin cell line)
Experimental: β-arrestin2 recruitment downstream of ACKR3 activation was analyzed using the PathHunter CHO-K1 CXCR7 β-arrestin Cell Line (93-0248C2; DiscoverX). Cells were cultured in AssayComplete™ Cell Culture Kit-107 (92-3107G; DiscoverX) at 37 °C and 5% CO2. Briefly, 20,000 cells/well were seeded in AssayComplete™ Cell Plating 2 Reagent (93-0563R2A; DiscoverX) in a white 96-well plate (100 µL/well) with clear bottom (Costar, 3610) and incubated overnight at 37 °C and 5% CO2. The next day, 10 µL/well of test compound (11 × concentrated) was added and cells were incubated for 90 min at 37 °C and 5% CO2. Compounds were tested in duplicate in a 1:4 dilution series ranging from 1000 nM to 0.06 nM final concentration. After incubation, 55 µL/well of detection reagent (PathHunter Detection kit; 93-0001; DiscoverX) was added and cells were incubated for 1 h at room temperature (RT) protected from light. Finally, luminescence was measured using a FLIPR Tetra® device (Molecular Devices, Sunnyvale, CA, USA). Four parameter non-linear curve fitting (GraphPad Prism 9.0.2) was used to determine the EC50 value for β-arrestin2 recruitment.

[1] = tested on: fibrosis-related genes (liver mRNA); test: nCounter analysis of 52 fibrosis-related genes in liver RNA; assay type: in vivo, mouse
Experimental: Total RNA was prepared from snap-frozen liver tissue (the lateral and medial right lobes and the caudate lobe; Supplementary Figure S1a) or lung tissue (cranial right lobe; Supplementary Figure S1b) after homogenization on ice in TRIZol. For quantitative qRT-PCR, cDNA was made from 0.5 μg of RNA using the GoScript reverse transcription system (Promega) according to the manufacturer's protocol. QRT-PCR was performed (for 40 cycles) with the Quantstudio3 Applied Biosystems (ABI) system using Sybr green (ABI) followed by melting curve analysis. Expression was calculated using the delta threshold cycle (ΔCT) method with Gapdh as reference gene (previously validated as stable house-keeping gene in the CCl4 model and in the bleomycin model, current study, not shown). Forward (F) and reverse (R) primer sequences were (5'-3'): […]; Col1a1: [NT]; Ackr3: [NT]; Cxcr4: [NT]; Golm1: [NT]; Lgals3: [NT]; Unc93b1: [NT]; Slc15a3: [NT]; Sec24d: [NT]; Cxcl10: [NT]; and […] Data are expressed as mean ± sem. For NanoString nCounter (NanoString, USA) analysis on liver RNA, a custom-designed panel of 52 fibrosis-related probes was used (the Nanostring probe list is shown in Supplementary Table 1). 100-500 ng of total RNA was hybridized according to the manufacturer's instructions. Data were normalized by scaling to a panel of four housekeeping genes (i.e., Hprt1, Actb, Ldh, Tbp; probes are listed in Supplementary Table 1) with a coefficient of variation of < 5% between conditions used for comparison. The scaled counts were base log2-transformed and data were expressed as fold-change versus the reference condition (CCl4 + 23% HPBCD). […] The resulting P-values were corrected for multiple testing with Benjamini-Hochberg to control the false discovery rate. P < 0.05 was considered as significant.

[2] = liver d28, CCl4 + compound 18a vs. CCl4 + 23% HPBCD

Chain of hACKR3 (P25106 whole entry): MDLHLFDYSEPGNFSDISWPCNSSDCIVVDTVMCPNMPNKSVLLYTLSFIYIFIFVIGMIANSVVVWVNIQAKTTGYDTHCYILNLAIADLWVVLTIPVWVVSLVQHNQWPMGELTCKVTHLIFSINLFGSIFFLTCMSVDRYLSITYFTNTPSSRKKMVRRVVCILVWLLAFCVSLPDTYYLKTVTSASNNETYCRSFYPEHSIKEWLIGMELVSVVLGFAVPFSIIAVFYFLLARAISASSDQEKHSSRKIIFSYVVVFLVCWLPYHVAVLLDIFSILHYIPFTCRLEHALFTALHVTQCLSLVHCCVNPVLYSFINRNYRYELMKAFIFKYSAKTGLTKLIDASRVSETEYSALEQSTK
Chain of hCXCR4 (P61073 whole entry): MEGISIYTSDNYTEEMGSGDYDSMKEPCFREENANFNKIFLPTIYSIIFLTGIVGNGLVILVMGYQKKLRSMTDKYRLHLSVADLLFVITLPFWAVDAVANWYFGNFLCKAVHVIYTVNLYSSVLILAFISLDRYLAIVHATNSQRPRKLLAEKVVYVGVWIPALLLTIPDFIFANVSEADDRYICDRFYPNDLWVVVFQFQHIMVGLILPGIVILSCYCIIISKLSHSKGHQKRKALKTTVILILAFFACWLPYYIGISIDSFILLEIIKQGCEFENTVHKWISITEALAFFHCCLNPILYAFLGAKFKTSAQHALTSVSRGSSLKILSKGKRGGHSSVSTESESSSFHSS

IC50 (hCXCR4): > 4000 nM
EC50 (hACKR3; conversion of 3.16 nM, read-out: EC50 β-arrestin2 recruitment expressed in ng/mL (converted)): 3.25 nM
EC50 (hACKR3; mean ± SD of two independent experiments, read-out: EC50 β-arrestin2 recruitment): 3.16 ± 0.12 nM
EC50 (hACKR3; taking into account 34% free fraction, read-out: EC50 corrected for free fraction in mouse plasma (target value) (converted)): 9.95 nM
SMILES: CCc1ccn2ccnc2c1N1CCCN(C(CC(N)=O)C2CCN(C(=O)C3CC4CCC3O4)CC2)CC1 (centres unmarked) [compound 18a]
number of the 52 fibrosis-related genes with significantly affected expression ([1]; CCl4-challenged livers, day 28): 8
Fold change Adamts2 mRNA [1, 2]: 1.15
Fold change Anxa3 mRNA [1, 2]: 0.85
Fold change Arhgap25 mRNA [1, 2]: 0.87
Fold change Arl11 mRNA [1, 2]: 1.09
Fold change Arpc1b mRNA [1, 2]: 1.04
Fold change Axl mRNA [1, 2]: 0.96
Fold change C1qb mRNA [1, 2]: 0.92
Fold change Capg mRNA [1, 2]: 0.85
Fold change Ccr2 mRNA [1, 2]: 0.96
Fold change Ccr5 mRNA [1, 2]: 0.86
Fold change Ccr9 mRNA [1, 2]: 1.04
Fold change Cd68 mRNA [1, 2]: 0.90
Fold change Cd86 mRNA [1, 2]: 0.88
Fold change Clec4n mRNA [1, 2]: 0.77
Fold change Clec7a mRNA [1, 2]: 1.13
Fold change Col3a1 mRNA [1, 2]: 1.40
Fold change Col4a2 mRNA [1, 2]: 0.92
Fold change Col5a1 mRNA [1, 2]: 0.84
Fold change Cxcl10 mRNA [1, 2]: 0.74
Fold change Cxcl16 mRNA [1, 2]: 1.03
Fold change Eln mRNA [1, 2]: 1.25
Fold change Enc1 mRNA [1, 2]: 1.09
Fold change Fxyd5 mRNA [1, 2]: 0.96
Fold change Gdf15 mRNA [1, 2]: 1.12
Fold change Golm1 mRNA [1, 2]: 1.46
Fold change Il1rn mRNA [1, 2]: 0.76
Fold change Laptm5 mRNA [1, 2]: 0.90
Fold change Lgals3 mRNA [1, 2]: 0.58
Fold change Lilrb4 mRNA [1, 2]: 0.94
Fold change Lox mRNA [1, 2]: 1.24
Fold change Loxl2 mRNA [1, 2]: 1.01
Fold change Ly86 mRNA [1, 2]: 1.15
Fold change Mmp9 mRNA [1, 2]: 1.13
Fold change Ms4a6a mRNA [1, 2]: 1.20
Fold change Myo1f mRNA [1, 2]: 0.90
Fold change Nckap1l mRNA [1, 2]: 0.97
Fold change Pld4 mRNA [1, 2]: 0.93
Fold change Plod2 mRNA [1, 2]: 1.13
Fold change Rassf4 mRNA [1, 2]: 0.93
Fold change Sdcbp mRNA [1, 2]: 1.08
Fold change Sec24d mRNA [1, 2]: 1.22
Fold change Serpine1 mRNA [1, 2]: 0.22
Fold change Sla mRNA [1, 2]: 1.00
Fold change Slc11a1 mRNA [1, 2]: 0.88
Fold change Slc15a3 mRNA [1, 2]: 0.81
Fold change Tgfb1 mRNA [1, 2]: 0.90
Fold change Thbs2 mRNA [1, 2]: 1.03
Fold change Timp1 mRNA [1, 2]: 1.09
Fold change Tnc mRNA [1, 2]: 0.84
Fold change Trem2 mRNA [1, 2]: 1.44
Fold change Unc93b1 mRNA [1, 2]: 0.81
